The values that follow come from US20140243335A1, “SUBSTITUTED HYDOXAMIC ACIDS AND USES THEREOF” (Millennium Pharmaceuticals, Inc., priority 2010, published 2014).

Structures can show the parent of a compound that is named as a salt.

This assay has as its target T1, purified human HDAC6 (Homo sapiens, UniProt Q9UBN7).
T1 construct: purchased BPS Bioscience 5006
T1 sequence (Q9UBN7 1-1215): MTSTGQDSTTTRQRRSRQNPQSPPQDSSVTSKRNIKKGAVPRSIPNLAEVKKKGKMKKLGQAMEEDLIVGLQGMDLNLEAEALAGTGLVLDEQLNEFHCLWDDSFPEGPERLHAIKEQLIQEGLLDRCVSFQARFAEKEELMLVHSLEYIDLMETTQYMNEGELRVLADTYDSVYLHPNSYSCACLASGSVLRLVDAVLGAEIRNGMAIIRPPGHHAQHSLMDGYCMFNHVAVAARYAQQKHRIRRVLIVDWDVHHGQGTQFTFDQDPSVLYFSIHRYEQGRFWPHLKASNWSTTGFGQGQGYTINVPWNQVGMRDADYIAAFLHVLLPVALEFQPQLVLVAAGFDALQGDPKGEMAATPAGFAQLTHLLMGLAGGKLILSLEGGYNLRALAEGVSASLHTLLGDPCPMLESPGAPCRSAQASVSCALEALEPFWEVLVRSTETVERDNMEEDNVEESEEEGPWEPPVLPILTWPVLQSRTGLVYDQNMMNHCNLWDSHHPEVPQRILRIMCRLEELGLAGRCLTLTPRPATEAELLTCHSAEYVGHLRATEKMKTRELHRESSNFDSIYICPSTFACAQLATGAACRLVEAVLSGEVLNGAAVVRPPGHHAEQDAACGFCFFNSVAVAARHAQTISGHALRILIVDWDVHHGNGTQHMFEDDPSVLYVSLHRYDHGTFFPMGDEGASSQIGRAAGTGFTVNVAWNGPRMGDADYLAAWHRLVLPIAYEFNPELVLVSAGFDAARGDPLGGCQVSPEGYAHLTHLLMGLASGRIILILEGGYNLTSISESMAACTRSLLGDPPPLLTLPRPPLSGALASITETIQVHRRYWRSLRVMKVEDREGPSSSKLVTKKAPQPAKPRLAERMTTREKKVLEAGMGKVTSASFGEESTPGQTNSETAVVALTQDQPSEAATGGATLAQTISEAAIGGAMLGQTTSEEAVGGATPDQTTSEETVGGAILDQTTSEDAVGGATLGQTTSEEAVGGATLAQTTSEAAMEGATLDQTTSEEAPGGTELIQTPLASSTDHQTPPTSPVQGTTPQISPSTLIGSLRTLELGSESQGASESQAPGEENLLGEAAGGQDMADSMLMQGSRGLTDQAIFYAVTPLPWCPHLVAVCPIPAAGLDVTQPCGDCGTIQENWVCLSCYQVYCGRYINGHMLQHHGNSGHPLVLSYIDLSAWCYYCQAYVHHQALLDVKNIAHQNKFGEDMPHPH
Kind of assay: HDAC6 Enzyme Assay. Format: biochemical. Conditions: HDAC6 inhibition at a compound concentration of 0.412 μM; read-out: Percent Inhibition at 0.412 μM.
As for `COc1ccccc1C(=O)NC1CCc2cc(C(=O)NO)ccc2C1` (centres unmarked) [Compound I-122, N-hydroxy-6-[(2-methoxybenzoyl)amino]-5,6,7,8-tetrahydronaphthalene-2-carboxamide], the inhibition at 0.412 µM worked out at 88%.
In the case of `Cn1cccc1C(=O)N1C2CCC1c1cc(C(=O)NO)ccc12` (centres unmarked) [Compound I-123, N-hydroxy-9-[(1-methyl-1H-pyrrol-2-yl)carbonyl]-1,2,3,4-tetrahydro-1,4-epiminonaphthalene-6-carboxamide] it was 90%.
Regarding `O=C(NO)c1ccc2c(c1)CCC(OCc1ccc(Cl)cc1)C2` (centres unmarked) [Compound I-125, 6-[(4-chlorobenzyl)oxy]-N-hydroxy-5,6,7,8-tetrahydronaphthalene-2-carboxamide], the inhibition at 0.412 µM is 87%.
Consider `CC1(C(=O)Nc2cc(OC3CCc4cc(C(=O)NO)ccc4C3)ccn2)CCNCC1` (centres unmarked) [Compound I-148, N-[4-({6-[(hydroxyamino)carbonyl]-1,2,3,4-tetrahydronaphthalen-2-yl}oxy)pyridin-2-yl]-4-methylpiperidine-4-carboxamide], for which the inhibition at 0.412 µM turned out to be 93%.
In the case of `CC(C)(C)C(=O)Nc1cc(OC2CCc3cc(C(=O)NO)ccc3C2)ccn1` (centres unmarked) [Compound I-150, 6-({2-[(2,2-dimethylpropanoyl)amino]pyridin-4-yl}oxy)-N-hydroxy-5,6,7,8-tetrahydronaphthalene-2-carboxamide], the inhibition at 0.412 µM stood at 86%.
Take `CC1(C(=O)NC2CCc3cc(C(=O)NO)ccc3C2)CCNCC1` (centres unmarked) [Compound I-170, N-{6-[(hydroxyamino)carbonyl]-1,2,3,4-tetrahydronaphthalen-2-yl}-4-methylpiperidine-4-carboxamide]: the inhibition at 0.412 µM was determined as 73%.
`CN(C)Cc1cc(C(=O)NC2CCc3cc(C(=O)NO)ccc3C2)cc(C(F)(F)F)c1` (centres unmarked) [Compound I-171, 6-{[3-[(dimethylamino)methyl]-5-(trifluoromethyl)benzoyl]amino}-N-hydroxy-5,6,7,8-tetrahydronaphthalene-2-carboxamide]: the inhibition at 0.412 µM is 77%.
For `CN(C)Cc1cccc(C2CCc3cc(C(=O)NO)ccc3C2)c1` (centres unmarked) [Compound I-183, 6-{3-[(dimethylamino)methyl]phenyl}-N-hydroxy-5,6,7,8-tetrahydronaphthalene-2-carboxamide] the value was 69%; for `O=C(NO)c1ccc2c(c1)CC(c1ccccc1C(F)(F)F)CC2` (centres unmarked) [Compound I-185, N-hydroxy-7-[2-(trifluoromethyl)phenyl]-5,6,7,8-tetrahydronaphthalene-2-carboxamide], 85%.
In the case of `O=C(NO)c1ccc2c(c1)CC(c1ccc(N3CCNCC3)nc1)CC2` (centres unmarked) [Compound I-190, N-hydroxy-7-(6-piperazin-1-ylpyridin-3-yl)-5,6,7,8-tetrahydronaphthalene-2-carboxamide], the inhibition at 0.412 µM stood at 90%.
With `CN(C)CCOc1cccc(C2CCc3ccc(C(=O)NO)cc3C2)c1` (centres unmarked) [Compound I-194, 7-{3-[2-(dimethylamino)ethoxy]phenyl}-N-hydroxy-5,6,7,8-tetrahydronaphthalene-2-carboxamide], the inhibition at 0.412 µM turned out to be 86%.
Turning to `CC1(C(=O)N2C3CCC2c2cc(C(=O)NO)ccc23)CCCCC1` (centres unmarked) [Compound I-196, N-hydroxy-9-[(1-methylcyclohexyl)carbonyl]-1,2,3,4-tetrahydro-1,4-epiminonaphthalene-6-carboxamide], the inhibition at 0.412 µM came out at 32%.
For `O=C(NO)c1ccc2c(c1)C1CCC2N1C(=O)c1ccc(Cl)cc1` (centres unmarked) [Compound I-197, 9-(4-chlorobenzoyl)-N-hydroxy-1,2,3,4-tetrahydro-1,4-epiminonaphthalene-6-carboxamide], the inhibition at 0.412 µM was 55%.
As for `COc1ccc(C(=O)N2C3CCC2c2cc(C(=O)NO)ccc23)cc1` (centres unmarked) [Compound I-198, N-hydroxy-9-(4-methoxybenzoyl)-1,2,3,4-tetrahydro-1,4-epiminonaphthalene-6-carboxamide], the inhibition at 0.412 µM is 60%.
Consider `O=C(NO)c1ccc2c(c1)C1CCC2N1C(=O)c1ccc(-c2ccccc2)cc1` (centres unmarked) [Compound I-199, 9-(biphenyl-4-ylcarbonyl)-N-hydroxy-1,2,3,4-tetrahydro-1,4-epiminonaphthalene-6-carboxamide], for which the inhibition at 0.412 µM is 70%.
Regarding `CC(C)(C)c1ccc(C(=O)N2C3CCC2c2cc(C(=O)NO)ccc23)cc1` (centres unmarked) [Compound I-200, 9-(4-tert-butylbenzoyl)-N-hydroxy-1,2,3,4-tetrahydro-1,4-epiminonaphthalene-6-carboxamide], the inhibition at 0.412 µM amounted to 67%.
Turning to `CC(C)(C)C(=O)N1C2CCC1c1cc(C(=O)NO)ccc12` (centres unmarked) [Compound I-201, 9-(2,2-dimethylpropanoyl)-N-hydroxy-1,2,3,4-tetrahydro-1,4-epiminonaphthalene-6-carboxamide], the inhibition at 0.412 µM was 29%.
For the molecule `O=C(NO)c1ccc2c(c1)C1CCC2N1C(=O)c1cc2ccccc2o1` (centres unmarked) [Compound I-202, 9-(1-benzofuran-2-ylcarbonyl)-N-hydroxy-1,2,3,4-tetrahydro-1,4-epiminonaphthalene-6-carboxamide], the inhibition at 0.412 µM was 19%.
Consider `O=C(NO)c1ccc2c(c1)C1CCC2N1C(=O)c1sc2ccccc2c1Cl` (centres unmarked) [Compound I-203, 9-[(3-chloro-1-benzothien-2-yl)carbonyl]-N-hydroxy-1,2,3,4-tetrahydro-1,4-epiminonaphthalene-6-carboxamide], for which the inhibition at 0.412 µM came out at 53%.
For `O=C(NO)c1ccc2c(c1)C1CCC2N1C(=O)c1cc2ccccc2s1` (centres unmarked) [Compound I-204, 9-(1-benzothien-2-ylcarbonyl)-N-hydroxy-1,2,3,4-tetrahydro-1,4-epiminonaphthalene-6-carboxamide] the value was 23%.
For `O=C(NO)c1ccc2c(c1)C1CCC2N1C(=O)C12CC3CC(CC(C3)C1)C2` (centres unmarked) [Compound I-205, 9-(1-adamantylcarbonyl)-N-hydroxy-1,2,3,4-tetrahydro-1,4-epiminonaphthalene-6-carboxamide], the inhibition at 0.412 µM came to 17%.
Consider `Cc1nc(-c2ccccn2)sc1C(=O)N1C2CCC1c1cc(C(=O)NO)ccc12` (centres unmarked) [Compound I-206], for which the inhibition at 0.412 µM came to 18%.
Regarding `CCCC(=O)N1C2CCC1c1cc(C(=O)NO)ccc12` (centres unmarked) [Compound I-207, 9-butyryl-N-hydroxy-1,2,3,4-tetrahydro-1,4-epiminonaphthalene-6-carboxamide], the inhibition at 0.412 µM turned out to be 25%.
In the case of `Cc1nc(C(=O)N2C3CCC2c2cc(C(=O)NO)ccc23)cs1` (centres unmarked) [Compound I-208, N-hydroxy-9-[(2-methyl-1,3-thiazol-4-yl)carbonyl]-1,2,3,4-tetrahydro-1,4-epiminonaphthalene-6-carboxamide] it was 34%.
For `O=C(NO)c1ccc2c(c1)C1CCC2N1C(=O)c1ccccn1` (centres unmarked) [Compound I-210, N-hydroxy-9-(pyridin-2-ylcarbonyl)-1,2,3,4-tetrahydro-1,4-epiminonaphthalene-6-carboxamide] the value was 28%.
As for `O=C(NO)c1ccc2c(c1)C1CCC2N1C(=O)Cc1ccccc1` (centres unmarked) [Compound I-211, N-hydroxy-9-(phenylacetyl)-1,2,3,4-tetrahydro-1,4-epiminonaphthalene-6-carboxamide], the inhibition at 0.412 µM was determined as 51%.
For `O=C(NO)c1ccc2c(c1)CC(C1CCNCC1)CC2` (centres unmarked) [Compound I-212, N-hydroxy-7-piperidin-4-yl-5,6,7,8-tetrahydronaphthalene-2-carboxamide. HCl] the value was 72%; for `CC(C)(C)OC(=O)N1CCC(C)(C(=O)Nc2cc(OC3CCc4cc(C(=O)NO)ccc4C3)ccn2)CC1` (centres unmarked) [Compound I-214, tert-Butyl 4-({[4-({6-[(hydroxyamino)carbonyl]-1,2,3,4-tetrahydronaphthalen-2-yl}oxy)pyridin-2-yl]amino}carbonyl)-4-methylpiperidine-1-carboxylate], 88%.
Consider `CC(C)N1CCC(C)(C(=O)Nc2cc(OC3CCc4cc(C(=O)NO)ccc4C3)ccn2)CC1` (centres unmarked) [Compound I-219, N-[4-({6-[(hydroxyamino)carbonyl]-1,2,3,4-tetrahydronaphthalen-2-yl}oxy)pyridin-2-yl]-1-isopropyl-4-methylpiperidine-4-carboxamide], for which the inhibition at 0.412 µM amounted to 90%.
